Laboratory results: patent publication US8889724B2, “Tetrazole compounds for reducing uric acid” (Wellstat Therapeutics Corporation, priority 2008, dated 2014)
Several values for one entry are separate records, joined by “and”; a condition that tells them apart may be missing. Identical values can stand only once.

Assays:
[1] = target: human URAT1 (Homo sapiens (Human), UniProt Q96S37); assay: URAT1 inhibition assay: [8-14C] urate uptake in hURAT1-HEK cells; format: cell-based
Procedure: URAT1 (Uric Acid Transporter 1) is expressed on the apical membrane in renal tubules. It mediates the re-uptake of uric acid from the urine into the blood.
A suitable assay involves transfection of cells (e g human embryonic kidney cells; “HEK”) with a vector encoding human URAT1, followed by determination of the ability of transfected cells to take up radiolabeled uric acid. The activity of compounds as URAT1 inhibitors is evaluated by their ability to block uric acid uptake by transfected cells.
Test Compounds and Chemicals:
Urate (50-60 mCi/mmol; American Radio Chemicals, Cat. No. ARC0513).
Subcloning of hURAT1 into the Expression Vector:
Plasmid vector pCMV6-XL5 containing hURAT1 cDNA (Cat. No. SC125624) and the expression vector pCMV6-Neo (Cat. No. pCMVNEO) were obtained from OriGene Technologies, Inc. The full-length hURAT1 cDNA was obtained from the vector pCMV6-XL5 and subcloned into the expression vector pCMV6-Neo to create the hURAT1 expression plasmid pCMV6-hURAT1. The sequences were verified by automatic DNA sequencing.
Cell Culture, Transfection of URAT1 Expressing Plasmids and the Establishment of Stably Expressing HEK Cells for hURAT1:
For transfection experiments, cells were plated on 60 mm dishes in 1 ml media per dish. […] Stable transfectants expressing hURAT1 (herein after referred as hURAT1-HEK cells) or cells having only the expression vector pCMV6-Neo (herein after referred as mock-HEK cells) were verified using reverse transcription polymerase chain reaction (RT-PCR) methods.
[8-^14C] Urate Uptake Assay:
Before the uptake assay started, the culture medium was removed and the cells were incubated for 5 min in 0.6 ml of HBSS. After that HBSS was removed, the prepared reaction solutions were added into each well and incubated for 5 min at room temperature. Then the reaction solution was removed, cells were washed twice with 0.6 ml of cold HBSS and lysed with 0.2 ml of 0.1 M NaOH for 20 min. […] Test compounds were dissolved in DMSO and the same concentration of DMSO was added into the wells of mock-HEK cells and the hURAT1-HEK cells that didn't contain test compounds. For each test compound, the uptake assay was performed 2 times and carried out in triplicate. Urate uptake of the cells for each test condition was presented as the average percent inhibition in comparison to the DMSO control. The radioactivity values obtained for the wells that contained DMSO were taken as 100% uptake of the cells. The observed concentration-percent inhibition data were fitted to a sigmoidal concentration-effect model, where: % Inhibition=(100*Conc^Slope)/(IC50^Slope+Conc^Slope)
In this example the compounds were not necessarily tested simultaneously.

[2] = Rat pilot single-dose oral pharmacokinetic study with Compound EB; format: in vivo; conditions: 100 mg/kg single oral gavage; for Compound EB concentration in plasma, individual rats: male Sprague-Dawley rat
Procedure: Rat Pilot Single-Dose Oral Pharmacokinetic Study with Compound EB
Determination of the plasma profile of Compound EB following single oral gavage administration to male rats.
Test compound was suspended in 1% HPMC using a tissue homogenizer to minimize particles and maximize uniformity of the suspension and stored at 4° C. The formulations was thoroughly mixed just prior to administration. A dose of 100 mg/kg of test compounds or vehicle (1% HPMC) was administered to male Sprague-Dawley rats by single oral gavage. […] The blood samples were centrifuged within 30 minutes of collection under refrigeration (2-8° C.) for 7 minutes at 6000 rpm. Following centrifugation, the plasma were harvested into a single tube for each animal at each time point and immediately frozen at −80° C. until analyzed using LC/MS-MS. Serial plasma concentration time data was subjected to pharmacokinetic analyses using WinNonlin Standard (v2.1, Pharsight Corporation) and Microsoft EXCEL.
1. Rats received single oral gavage of Compound EB, 100 mg/kg, and plasma was collected at certain times.
2. Plasma was stored at −80° C. until the day of analysis.
3. Samples were thawed on 37° C. bath for 5 min and vortexed at top speed for 10 sec.
4. Rat plasma, 0.1 mL was mixed with 0.2 mL Acetonitrile, vortexed 1 min, spun down 14000 rpm, 17000 g, at 4° C., for 25 min.
(§1) 5. Supernatants were filtered through 0.45 micron, 4 mm, PTFE membrane syringe filter (Phenomenex # AF0-3102-52), and 13 microL were injected and resolved on Luna 3 micron, 100 A pore, C8(2), 150×3 mm, reverse phase column (Phenomenex#00F-4248-YO, SN#259151-7) in 50 min linear gradient from 40% to 69% of (0.1% Formic Acid, 89.9% Acetonitrile, 10% Methanol) at 0.25 mL/min, 100 bar, 37° C. column temperature, method 406975M1, AGILENT sequence 1015-08A, Agilent 1100 LC-MS.
All samples were run in duplicate, 210 nm and 230 nm Absorbances, Negative and Positive ionization spectrograms were recorded.
Step 1. Plasma from “Vehicle” animals (pooled), 0.19 mL, was mixed with 0.01 mL 20× stock of PN2107 in Methanol to make 500 microM, 250 microM, 125 microM, . . . , concentrations of Compound EB in plasma.
For example: 190 microL plasma+10 microL of 10 mM Compound EB in methanol=0.2 mL plasma with 500 microM Compound EB.
Step 2. Samples from step 1 were vortexed for 10 sec at top speed.
Step 3. 0.4 mL of acetonitrile was added to all samples from Step 2, and all vials were vortexed at top speed for 1 min.
Step 4. All samples from step 3 were spun down 14000 rpm, 17000 g, at 4° C., for 25 min.
as §1, with “Step 5.” for “5.”, “AF0-3102-52),” for “AF0-3102-52), and”, “ml/min,” for “mL/min,”, “temperature.” for “temperature, method 406975M1, AGILENT sequence 1015-08A, Agilent 1100 LC-MS.”

Sequence of human URAT1 (Q96S37 whole entry): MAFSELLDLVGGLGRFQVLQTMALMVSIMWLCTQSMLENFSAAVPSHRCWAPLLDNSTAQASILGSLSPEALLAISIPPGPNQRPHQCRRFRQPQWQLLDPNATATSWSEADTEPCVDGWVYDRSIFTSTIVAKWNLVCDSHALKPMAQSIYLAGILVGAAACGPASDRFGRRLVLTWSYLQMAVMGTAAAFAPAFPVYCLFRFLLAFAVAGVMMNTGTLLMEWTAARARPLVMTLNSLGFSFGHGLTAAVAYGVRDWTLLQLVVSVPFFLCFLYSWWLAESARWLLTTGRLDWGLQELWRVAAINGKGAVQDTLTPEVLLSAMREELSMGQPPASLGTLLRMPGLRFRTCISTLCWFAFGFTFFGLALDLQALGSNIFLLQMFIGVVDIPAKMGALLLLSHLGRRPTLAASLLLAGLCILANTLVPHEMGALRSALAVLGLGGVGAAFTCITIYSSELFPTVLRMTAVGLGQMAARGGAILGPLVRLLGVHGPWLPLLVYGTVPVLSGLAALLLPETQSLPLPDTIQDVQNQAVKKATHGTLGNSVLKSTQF

Which inhibition at 10 µM ([1]; 10 μM, hURAT1-HEK cells) does the source give for Cc1cccc(C)c1COc1cccc(-c2nnn[nH]2)c1 [Compound EB, 5-(3-(2,6-Dimethylbenzyloxy)phenyl)-1H-tetrazole] here?
Its inhibition at 10 µM is 90%.

And the IC50 ([1]; 14C urate uptake in hURAT1-HEK cells)?
Its IC50 is 930 nM.

What about the “Detection in rat plasma (in words)” value ([2]; LC-MS) of the same molecule?
The value was “readily detected”.

What about the Cmax ([2]; Sprague-Dawley, rat, male rats, plasma) of the same molecule?
The Cmax was 108 µg/mL.

What about the AUC(0-t) ([2]; Sprague-Dawley, rat, male rats, plasma, read-out: AUC 0-24) of the same molecule?
The AUC(0-t) was 566 µg·h/mL.

And the half-life ([2]; Sprague-Dawley, rat, male rats, plasma, read-out: T ½)?
The half-life was 3.99 h.

What about the “Compound EB concentration in plasma, individual rats” value (shortened to “Compound EB concentration in plasma”) ([2]; 1 HR) of the same molecule?
Its value is 386 µM and 103 µM.

And the “Compound EB concentration in plasma” value ([2]; 2 HR)?
Its value is 75 µM and 206 µM.

What about the “Compound EB concentration in plasma” value ([2]; 4 HR) of the same molecule?
The value was 24 µM and 112 µM.

And the “Compound EB concentration in plasma” value ([2]; 6 HR)?
Its value is 26 µM and 92 µM.

What about the “Compound EB concentration in plasma” value ([2]; 8 HR) of the same molecule?
Its value is 72 µM and 202 µM.

And the “Compound EB concentration in plasma” value ([2]; 24 HR)?
Its value is 0 µM and 17 µM.

And the “Compound EB concentration in plasma” value ([2]; 15 min)?
The value was 184 µM and 159 µM.

And the “Compound EB concentration in plasma” value ([2]; 30 min)?
Its value is 37 µM and 125 µM.

And the concentration at 0 h ([2]; male, Sprague-Dawley, rat plasma, time 0, read-out: Compound EB concentrations, averages)?
The concentration at 0 h was 0 nM and 0 ng/mL.

What about the concentration at 0.25 h ([2]; male, Sprague-Dawley, rat plasma, time 0.25, read-out: Compound EB concentrations, averages) of the same molecule?
The concentration at 0.25 h was 172 µM and 48000 ng/mL.

What about the concentration at 0.5 h ([2]; male, Sprague-Dawley, rat plasma, time 0.5, read-out: Compound EB concentrations, averages) of the same molecule?
The concentration at 0.5 h was 81 µM and 22700 ng/mL.

What about the concentration at 1 h ([2]; male, Sprague-Dawley, rat plasma, time 1, read-out: Compound EB concentrations, averages) of the same molecule?
The concentration at 1 h was 244 µM and 68500 ng/mL.

What about the concentration at 2 h ([2]; male, Sprague-Dawley, rat plasma, time 2, read-out: Compound EB concentrations, averages) of the same molecule?
Its concentration at 2 h is 140 µM and 39300 ng/mL.

And the concentration at 4 h ([2]; male, Sprague-Dawley, rat plasma, time 4, read-out: Compound EB concentrations, averages)?
The concentration at 4 h was 68 µM and 19000 ng/mL.

And the concentration at 6 h ([2]; male, Sprague-Dawley, rat plasma, time 6, read-out: Compound EB concentrations, averages)?
The concentration at 6 h was 59 µM and 16500 ng/mL.

What about the concentration at 8 h ([2]; male, Sprague-Dawley, rat plasma, time 8, read-out: Compound EB concentrations, averages) of the same molecule?
The concentration at 8 h was 137 µM and 38400 ng/mL.

And the concentration at 24 h ([2]; male, Sprague-Dawley, rat plasma, time 24, read-out: Compound EB concentrations, averages)?
The concentration at 24 h was 8.5 µM and 2380 ng/mL.
